Measured values published in paper PMC7136958, “Targeting the pregnane X receptor using microbial metabolite mimicry” (EMBO Molecular Medicine, 2020).
Several values for one entry are separate records, joined by “and”; a condition that tells them apart may be missing. Equal entries are not always repeated. Marks after values point to notes of the source that are not given here.

How the values were obtained:
FXR = molecular target: T1, FXR (Homo sapiens, UniProt Q96RI1); experiment: hFXR TR-FRET (LanthaScreen FXR Coactivator Assay); format: biochemical; settings: 1 nM to 25 µM
T1 construct: purchased Invitrogen PV4833
T1 sequence (Q96RI1 211-486 limits assumed): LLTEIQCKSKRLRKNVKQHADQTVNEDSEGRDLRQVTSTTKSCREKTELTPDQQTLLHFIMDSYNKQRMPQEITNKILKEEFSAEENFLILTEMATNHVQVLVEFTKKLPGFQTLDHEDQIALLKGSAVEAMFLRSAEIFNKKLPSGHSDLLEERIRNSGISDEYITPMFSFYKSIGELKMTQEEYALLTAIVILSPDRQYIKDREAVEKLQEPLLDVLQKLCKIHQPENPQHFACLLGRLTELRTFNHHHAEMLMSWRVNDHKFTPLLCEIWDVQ
Description: volume of 20 µl in 384-well black plates, with concentrations of tested compounds in the range from 1
nm, on Infinite F200 microplate reader (Tecan Group Ltd, Switzerland).
All experiments were done in tetraplicates and as two independent experiments. Final EC50 values were obtained by processing the data with GraphPad Prism 6 using standard curve interpolation (sigmoidal, 4PL, variable slope).

IL-8 mRNA in HIOs = experiment: IL-8 mRNA in iPSC-derived human intestinal organoids exposed to cytokine cocktail; format: cell-based; design: key to IL8 mRNA: relative IL-8 mRNA level, normalized to GAPDH; settings: for basal IL-8 expression: 10 and 25 μM; for IL-8 mRNA expression in presence of cytokines: 12 h of exposure; for IL8 mRNA: HIO, triplicate
Description: Caco‐2 cell (ATCC, Manassas, VA) passages 25–35 were maintained and expanded in culture flasks in Dulbecco's modified Eagle's medium (DMEM) with 10% FBS and 1× antibiotic–antimycotic. The cells were kept in a humidified 37°C incubator with 5% CO2. Media were changed every 2–3 days, and cells were passaged 1–2 times a week. For all experiments, Caco‐2 cells (5 × 10^4 cells/ml) were seeded into 12‐well Transwell inserts or coverslips and cultured for 3 weeks. HIOs were generated from iPSCs as described previously (Spence et al, 2011), with some modifications. The iPSC cell line IISH1i‐BM1 (WiCell, Madison, WI) was cultured on Matrigel plates to 80% confluence in mTeSR™ 1 medium (Stem Cell Technologies, Seattle, WA) and differentiated to endoderm using Definitive Endoderm Kit (Stem Cell Technologies., Seattle, WA) for 4 days with daily media changes. Endoderm was then differentiated to hindgut for 5 days with the addition of FGF‐4 (500 ng/ml; Peprotech, Rocky Hill, NJ) and Chir99021 (3 μM; Cayman, Ann Arbor, MI) in RPMI media supplemented with 2% FBS. Floating hindgut spheroids were collected on days 3–5 of hindgut differentiation and suspended in Matrigel beads for HIO differentiation. HIOs were maintained in WENRAS media (Fujii et al, 2015), which maintains proliferation in the culture. Stock HIOs were passaged weekly by removing Matrigel with Cell Recovery Solution (Corning, NY) and mechanically breaking up organoids with pipetting. HIOs were seeded into new Matrigel beads at a 1:3 split, using WENRAS with added Rock Inhibitor Y‐27632 (10 μM) and Chir99021 (3 μM; Cayman., Ann Arbor, MI) for the first 2 days of culture.
HIOs and Caco‐2 were exposed to a pro‐inflammatory cytokine cocktail (10 ng/ml IFN‐γ, 10 ng/ml TNF‐α, 50 ng/ml IL‐1β) for 2–24 h in combination with DMSO or FKK5 and FKK6 compounds (10 and 25 μm). Relative mRNA levels of IL‐8 and IL‐6 were determined using quantitative real‐time PCR, with normalization to GAPDH. RNA was isolated using an RNeasy Mini Kit (Qiagen) as per the manufacturer's instructions. On column DNase (Qiagen) was used to remove any contaminating DNA. Next, cDNA was formed using iScript cDNA Synthesis Kit (Bio‐Rad) and 100 ng RNA. qRT–PCR was performed with SsoAdvanced Universal SYBR Green Kit (Bio‐Rad). The following primers were used: IL‐8 Forward: […]; IL‐8 Reverse: […]; IL‐6 Forward: […]; IL‐6 Reverse: […]; GAPDH Forward: […]; GAPDH Reverse: […]. For immunofluorescent staining of NF‐ĸB translocation to the cell nucleus, HIOs and Caco‐2 cell monolayers were fixed in 4% formaldehyde (in 1 × PBS) overnight at 4°C. The formaldehyde was removed by washing with 1 × PBS, and an antigen retrieval step was performed by incubating in 10 mM sodium citrate buffer in a vegetable steamer for 20 min. The samples were then blocked with normal donkey serum (10% in PBS with 0.3% Triton X‐100) for 1 h. Samples were incubated overnight with primary antibodies: rabbit anti‐NF‐κB p65 (D14E12 # 8242, 1:400 dilution, Cell Signaling Technology, Danvers MA), then immersed in Alexa Fluor® 555 donkey anti‐rabbit secondary antibody (A‐31572, Life Technologies) at a 1:500 dilution. Nuclei were stained with Hoechst 33342 (Life Technologies). The samples were then imaged using a Zeiss LSM880 Confocal/Multiphoton Upright Microscope, with 3‐D image rendering using Volocity. For controls, normal rabbit IgG (#2729S, Life Technologies) was used.

hPXR = molecular target: T2, hPXR (Homo sapiens, UniProt O75469); experiment: hPXR TR-FRET competitive binding assay (LanthaScreen); settings: for 520/495 TR-FRET ratio: replicate wells; for TR-FRET signal (Fig 1e): each column a repeat
T2 sequence (O75469 111-434 limits assumed): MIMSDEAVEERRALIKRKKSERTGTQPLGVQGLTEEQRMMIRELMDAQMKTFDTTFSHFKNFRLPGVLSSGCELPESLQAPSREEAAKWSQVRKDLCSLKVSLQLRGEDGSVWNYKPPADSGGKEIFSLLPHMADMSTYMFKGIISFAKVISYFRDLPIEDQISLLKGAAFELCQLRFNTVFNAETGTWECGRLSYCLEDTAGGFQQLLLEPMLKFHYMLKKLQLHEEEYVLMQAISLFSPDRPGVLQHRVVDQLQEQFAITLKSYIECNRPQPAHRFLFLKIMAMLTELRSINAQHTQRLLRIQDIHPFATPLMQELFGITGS
Description: All PXR‐binding assays were performed as two independent experiments, each with a minimum of four replicates. Final IC50 was obtained by processing the data with GraphPad Prism 6 using standard curve interpolation (sigmoidal, 4PL, variable slope).

S. typhimurium 14038 = experiment: Salmonella invasion (gentamicin protection assay) in Caco-2 monolayers; format: cell-based, Salmonella typhimurium; settings: for cytokine-induced salmonella invasion: 10 and 25 μM, vs cytokines only; for Salmonella CFU/ml: Caco-2 cells, triplicate
Description: FKK compounds were tested for their ability to prevent Salmonella invasion in vitro in non‐inflamed and inflamed cell cultures. Overnight cultures of S. typhimurium 14038 were diluted to OD600 0.01 and injected into with HIOs or immersed over Caco‐2 monolayers for 1 h at 37°C. The invasive ability of Salmonella was assessed using the gentamicin protection assay (Gagnon et al, 2013). Bacterial adhesion scenarios to the Caco‐2 surface were set up as described above. Non‐adhered bacteria were removed by washing twice in PBS, followed by incubation with 1 ml gentamicin (150 μg/ml in DMEM) for 1 h at 37°C to kill the adhered extracellular bacteria. Dead bacteria were removed by washing twice in PBS, followed by incubation with 500 μl 0.1% Triton X‐100 for 15 min at 37°C to lyse the HIOs and Caco‐2, and release the intracellular (invaded) bacteria. Serial fold dilutions and plating were then employed to determine CFU/ml. We normalized to total protein using Bradford assay.

[1] = compound 10µm, no cytokines, 2 hr
[2] = cytokines + compound 10µm, 2 hr
[3] = cytokines + compound 25µm, 2 hr
[4] = compound 10µm, no cytokines, 6 hr
[5] = compound 10µm, no cytokines, 12 hr
[6] = compound 25µm, no cytokines, 6 hr
[7] = cytokines + compound 10µm, 6 hr
[8] = cytokines + compound 25µm, 6 hr
[9] = cytokines + compound 25µm, 12 hr
[10] = cytokines + compound 10µm, 12 hr

SMILES | FXR ligand agonist activity (FXR) | basal IL-8 expression (IL-8 mRNA in HIOs) | IL-8 mRNA expression in presence of cytokines (IL-8 mRNA in HIOs) | IL8 mRNA (IL-8 mRNA in HIOs; [1]) | IL8 mRNA (IL-8 mRNA in HIOs; [2]) | IL8 mRNA (IL-8 mRNA in HIOs; [3]) | 520/495 TR-FRET ratio (hPXR; 0.001 uM) | 520/495 TR-FRET ratio (hPXR; 0.005 uM) | 520/495 TR-FRET ratio (hPXR; 0.01 uM) | 520/495 TR-FRET ratio (hPXR; 0.05 uM) | 520/495 TR-FRET ratio (hPXR; 0.1 uM) | 520/495 TR-FRET ratio (hPXR; 0.5 uM) | 520/495 TR-FRET ratio (hPXR; 1 uM) | 520/495 TR-FRET ratio (hPXR; 5 uM) | 520/495 TR-FRET ratio (hPXR; 10 uM) | 520/495 TR-FRET ratio (hPXR; 25 uM) | TR-FRET signal (Fig 1e) (hPXR; Drug Conc 5 nM) | TR-FRET signal (Fig 1e) (hPXR; Drug Conc 10 nM) | TR-FRET signal (Fig 1e) (hPXR; Drug Conc 25 uM) | cytokine-induced salmonella invasion (S. typhimurium 14038) | other results
C#CCC(O)(c1ccncc1)c1cc2ccccc2n1S(=O)(=O)c1ccccc1 (stereo not drawn) [FKK6] | did not observe any significant ligand agonist activity | no significant effect | significantly reduced | 17.457 and 16.5395 and 13.4302 | 87.755 and 95.5702 and 80.4889 | 19.632 and 32.9894 and 27.3407 | 0.4136 and 0.4057 and 0.5035 and 0.4539 | 0.6293 and 0.6196 and 0.5845 and 0.6237 | 0.6566 and 0.5913 and 0.6411 and 0.6166 | 0.6583 and 0.5743 and 0.6162 and 0.6466 | 0.7390 and 0.6524 and 0.6459 and 0.6637 | 0.5359 and 0.4958 and 0.5519 and 0.5445 | 0.5035 and 0.4918 and 0.5332 and 0.5717 | 0.3896 and 0.3581 and 0.3234 and 0.3736 | 0.2832 and 0.3381 and 0.2857 and 0.3170 | 0.3206 and 0.2975 and 0.3225 and 0.3589 | 0.6293 and 0.6196 and 0.5845 and 0.6237 | 0.6566 and 0.5913 and 0.6411 and 0.6166 | 0.3206 and 0.2975 and 0.3225 and 0.3589 | significantly decreased | TR-FRET signal (Fig 1e) (hPXR; Drug Conc 0,25 uM): 0.6324 and 0.6211 and 0.6238 and 0.5836; TR-FRET signal (Fig 1e) (hPXR; Drug Conc 1 nM): 0.4136* and 0.4057* and 0.5035* and 0.4539*; TR-FRET signal (Fig 1e) (hPXR; Drug Conc 50 nM): 0.6583 and 0.5743 and 0.6162 and 0.6466; TR-FRET signal (Fig 1e) (hPXR; Drug Conc 10 uM): 0.2832 and 0.3381 and 0.2857 and 0.317; Salmonella CFU/ml (S. typhimurium 14038; [4]): 3008 CFU/ml and 3000 CFU/ml and 1800 CFU/ml; Salmonella CFU/ml (S. typhimurium 14038; [5]): 1840 CFU/ml and 3520 CFU/ml and 2960 CFU/ml; Salmonella CFU/ml (S. typhimurium 14038; [6]): 2076 CFU/ml and 2290 CFU/ml and 2980 CFU/ml; Salmonella CFU/ml (S. typhimurium 14038; compound 25µm, no cytokines, 12 hr): 1360 CFU/ml and 2480 CFU/ml and 2320 CFU/ml; Salmonella CFU/ml (S. typhimurium 14038; [7]): 2276 CFU/ml and 2820 CFU/ml and 1500 CFU/ml; Salmonella CFU/ml (S. typhimurium 14038; [8]): 1940 CFU/ml and 1870 CFU/ml and 1600 CFU/ml; Salmonella CFU/ml (S. typhimurium 14038; [9]): 2520 CFU/ml and 1360 CFU/ml; salmonella invasion, compound alone (S. typhimurium 14038; no cytokines): No significant effect
O=C(c1ccncc1)c1cc2ccccc2n1S(=O)(=O)c1ccccc1 [FKK5, (1-(phenylsulfonyl)-1H-indol-2-yl)(pyridin-4-yl)methanone] | did not observe any significant ligand agonist activity | no significant effect | significantly reduced | 18.0113 and 18.2375 and 29.1251 | 84.3969 and 82.9774 and 82.3934 | 91.455 and 107.347 and 106.247 | 0.6965 and 0.4501 and 0.6299 and 0.6424 | 0.7274 and 0.6833 and 0.7094 and 0.6960 | 0.5474 and 0.5649 and 0.4572 and 0.5311 | 0.6957 and 0.6419 and 0.6716 and 0.6881 | 0.6678 and 0.6931 and 0.6595 and 0.6666 | 0.6903 and 0.6366 and 0.6178 and 0.6056 | 0.6447 and 0.5990 and 0.6565 and 0.5995 | 0.4264 and 0.3946 and 0.3906 and 0.3944 | 0.2760 and 0.2201 and 0.3383 and 0.4401 | 0.2211 and 0.2334 and 0.2644 and 0.2449 | 0.7094 and 0.696 and 0.7274 and 0.6833 | 0.4572* and 0.5311* and 0.5474* and 0.5649* | 0.2644 and 0.2449 and 0.2211 and 0.2334 | significantly decreased | IL8 mRNA (IL-8 mRNA in HIOs; compound 25µm, no cytokines, 2 hr): 28.3595 and 38.1574 and 25.5014; IL8 mRNA (IL-8 mRNA in HIOs; [10]): 1568.63 and 1202.46 and 1346.22; IL8 mRNA (IL-8 mRNA in HIOs; [9]): 1661.53 and 1048.7 and 891.557; TR-FRET signal (Fig 1e) (hPXR; Drug Conc 1 uM): 0.5995 and 0.6565 and 0.599 and 0.6447; TR-FRET signal (Fig 1e) (hPXR; Drug Conc 5 uM): 0.3906 and 0.3944 and 0.4264 and 0.3946; TR-FRET signal (Fig 1e) (hPXR; Drug Conc 2,5 uM): 0.4667 and 0.4734 and 0.4777 and 0.4842; Salmonella CFU/ml (S. typhimurium 14038; [4]): 5980 CFU/ml and 4820 CFU/ml and 5870 CFU/ml; Salmonella CFU/ml (S. typhimurium 14038; [5]): 5920 CFU/ml and 4240 CFU/ml and 5520 CFU/ml; Salmonella CFU/ml (S. typhimurium 14038; [6]): 4940 CFU/ml and 4950 CFU/ml and 4400 CFU/ml; Salmonella CFU/ml (S. typhimurium 14038; [7]): 5800 CFU/ml and 5710 CFU/ml and 4100 CFU/ml; Salmonella CFU/ml (S. typhimurium 14038; [10]): 2240 CFU/ml and 4480 CFU/ml and 4320 CFU/ml; Salmonella CFU/ml (S. typhimurium 14038; [8]): 3700 CFU/ml and 3900 CFU/ml and 3270 CFU/ml; Salmonella CFU/ml (S. typhimurium 14038; [9]): 3040 CFU/ml and 3240 CFU/ml and 2560 CFU/ml; salmonella invasion, compound alone (S. typhimurium 14038; no cytokines): No significant effect
